Data: patent US7291641B2, “Derivatives of heterocycles with 5 members, their preparation and their use as medicaments” (Societe de Conseils de Recherches et d'Applications …, priority 1999, dated 2007)
Counter-ions that a name gives are not always drawn.

First: CCN(CC)c1ccc(-c2c[nH]c([C@@H](NC3CCCCC3)C3CCCCC3)n2)cc1 (as salt: hydrochloride) [Example 292, 4-{2-[(S)-cyclohexyl(cyclohexylamino)methyl]-1H-imidazol-4-yl}-N,N-diethylaniline]
Second: FC(F)(F)c1ccc(-c2c[nH]c([C@@H](NC3CCCCC3)C3CCCCC3)n2)cc1 (as salt: hydrochloride) [Example 296, N-((S)-cyclohexyl{4-[4-(trifluoromethyl)phenyl]-1H-imidazol-2-yl}methyl)cyclohexanamine]
The melting point of the first is lower: 204 to 210 °C for the first, 214.1 °C for the second.

First: Fc1ccc(-c2c[nH]c([C@@H](NCC3CCCCC3)C3CCCCC3)n2)cc1 (as salt: hydrochloride) [Example 295, (S)-1-cyclohexyl-N-(cyclohexylmethyl)-1-[4-(4-fluorophenyl)-1H-imidazol-2-yl]methanamine]
Second: Fc1ccc(-c2c[nH]c([C@H](NCC3CCCCC3)C3CCCCC3)n2)cc1 (as salt: hydrochloride) [Example 318, (R)-1-cyclohexyl-N-(cyclohexylmethyl)-1-[4-(4-fluorophenyl)-1H-imidazol-2-yl]methanamine]
The melting point of the first is higher: 190 to 192 °C for the first, 188.2 °C for the second.

Going from Brc1cccc(-c2c[nH]c([C@@H](NC3CCCCC3)C3CCCCC3)n2)c1 (as salt: hydrochloride) [Example 297, N-[(S)-[4-(3-bromophenyl)-1H-imidazol-2-yl](cyclohexyl)methyl]-cyclohexanamine] to Fc1cccc(-c2c[nH]c([C@@H](NC3CCCCC3)C3CCCCC3)n2)c1 (as salt: hydrochloride) [Example 314, N-{(S)-cyclohexyl[4-(3-fluorophenyl)-1H-imidazol-2-yl]methyl}cyclohexanamine], the melting point falls from 230.4 °C to 213.9 °C.

First: Brc1cccc(-c2c[nH]c([C@@H](NCC3CCCCC3)C3CCCCC3)n2)c1 (as salt: hydrochloride) [Example 306, (S)-1-[4-(3-bromophenyl)-1H-imidazol-2-yl]-1-cyclohexyl-N-(cyclohexylmethyl)methanamine]
Second: Fc1cccc(-c2c[nH]c([C@@H](NCC3CCCCC3)C3CCCCC3)n2)c1 (as salt: hydrochloride) [Example 312, (S)-1-cyclohexyl-N-(cyclohexylmethyl)-1-[4-(3-fluorophenyl)-1H-imidazol-2-yl]methanamine]
The melting point of the first is higher: 206.3 °C for the first, 180 to 186 °C for the second.

First: FC(F)(F)c1cccc(-c2c[nH]c([C@@H](NCC3CCCCC3)C3CCCCC3)n2)c1 (as salt: hydrochloride) [Example 307, (S)-1-cyclohexyl-N-(cyclohexylmethyl)-1-{4-[3-(trifluoromethyl)-phenyl]-1H-imidazol-2-yl}methanamine]
Second: N[C@H](c1nc(-c2cccc(F)c2)c[nH]1)C1CCCCC1 (as salt: hydrochloride) [Example 311, (S)-1-cyclohexyl-1-[4-(3-fluorophenyl)-1H-imidazol-2-yl]methanamine]
The melting point of the first is lower: 198 to 200 °C for the first, 238 to 241 °C for the second.

Compared with N[C@H](CC1CCCCC1)c1nc(-c2ccc(F)cc2)c[nH]1 (as salt: hydrochloride) [Example 308, (1R)-2-cyclohexyl-1-[4-(4-fluorophenyl)-1H-imidazol-2-yl]ethanamine], CCN(CC)c1ccc(-c2c[nH]c([C@@H](N)C3CCCCC3)n2)cc1 (as salt: hydrochloride) [Example 310, 4-{2-[(S)-amino(cyclohexyl)methyl]-1H-imidazol-4-yl}-N,N-diethylaniline] is higher in melting point: 148 to 149 °C for the first, 216 to 217 °C for the second.

First: CC(C)(C)c1cc(-c2c[nH]c([C@@H](N)C3CCCCC3)n2)cc(C(C)(C)C)c1O (as salt: hydrochloride) [Example 316, 4-{2-[(S)-amino(cyclohexyl)methyl]-1H-imidazol-4-yl}-2,6-ditert-butylphenol]
Second: CC(C)(C)c1cc(-c2c[nH]c(CCNC(=O)OCC3CCCCC3)n2)cc(C(C)(C)C)c1O (as salt: hydrochloride) [Example 329, cyclohexylmethyl 2-[4-(3,5-ditert-butyl-4-hydroxyphenyl)-1H-imidazol-2-yl]ethylcarbamate]
The melting point of the first is higher: 222 to 228 °C for the first, 111.5 °C for the second.

First: CCCCOC(=O)NCCc1nc(-c2ccc(N3CCCC3)cc2)c[nH]1 (as salt: hydrochloride) [Example 317, butyl 2-[4-(4-pyrrolidin-1-ylphenyl)-1H-imidazol-2-yl]ethylcarbamate]
Second: O=C(NCCc1nc(-c2ccc(-c3ccc(Br)cc3)cc2)c[nH]1)OCC1CCC1 (as salt: hydrochloride) [Example 337, cyclobutylmethyl 2-[4-(4′-bromo-1,1′-biphenyl-4-yl)-1H-imidazol-2-yl]ethylcarbamate]
The melting point of the first is lower: 165 to 166 °C for the first, 214 to 215 °C for the second.

First: N[C@H](Cc1ccccc1)c1nc(-c2ccc(F)cc2)c[nH]1 (as salt: hydrochloride) [Example 324, (1R)-1-[4-(4-fluorophenyl)-1H-imidazol-2-yl]-2-phenylethanamine]
Second: Fc1ccc(-c2c[nH]c([C@@H](Cc3ccccc3)NC3CCCCC3)n2)cc1 (as salt: hydrochloride) [Example 327, N-{(1R)-1-[4-(4-fluorophenyl)-1H-imidazol-2-yl]-2-phenylethyl}cyclohexanamine]
The melting point of the first is lower: 173 to 180 °C for the first, 210 to 213 °C for the second.

Compared with NCCCc1nc(-c2ccc(F)cc2)c[nH]1 (as salt: hydrochloride) [Example 343, 3-[4-(4-fluorophenyl)-1H-imidazol-2-yl]propan-1-amine], CCCCCCC(NC1CCC1)c1nc(-c2ccc(F)cc2)c[nH]1 (racemic) (as salt: hydrochloride) [Example 84, (R,S)-N-{1-[4-(4-fluorophenyl)-1H-imidazol-2-yl]heptyl}-cyclobutanamine] is lower in melting point: 245 to 246 °C for the first, 144 to 146 °C for the second.

First: CCCCCCC(NCc1ccccc1)c1nc(-c2cccc(Br)c2)c[nH]1 (racemic) (as salt: acetate) [Example 193, (R,S)-N-benzyl-1-[4-(3-bromophenyl)-1H-imidazol-2-yl]-1-heptanamine]
Second: CCCCCCC(NCC(C)C)c1nc(-c2ccccc2)c[nH]1 (racemic) (as salt: acetate) [Example 234, (R,S)-N-isobutyl-1-(4-phenyl-1H-imidazol-2-yl)-1-heptanamine]
The melting point of the first is higher: 115 to 116 °C for the first, 70 to 72 °C for the second.

Compared with CCCCCC(N)c1nc(-c2ccccc2)c[nH]1 (racemic) (as salt: hydrochloride) [Example 65, (R,S)-1-(4-phenyl-1H-imidazol-2-yl)hexylamine], CCCCCCC(N)c1nc(-c2cccc(OC)c2)c[nH]1 (racemic) (as salt: hydrochloride) [Example 69, (R,S)-1-[4-(3-methoxyphenyl)-1H-imidazol-2-yl]heptylamine] is lower in melting point: 146 to 148 °C for the first, 110 to 112 °C for the second.

First: Cn1cc(CC(N)c2nc(-c3ccccc3)c[nH]2)c2ccccc21 (racemic) (as salt: hydrochloride) [Example 92, (R,S)-2-(1-methyl-1H-indol-3-yl)-1-(4-phenyl-1H-imidazol-2-yl)ethylamine]
Second: NC(Cc1c[nH]c2cc(Cl)ccc12)c1nc(-c2ccccc2)c[nH]1 (racemic) (as salt: hydrochloride) [Example 122, (R,S)-2-(6-chloro-1H-indol-3-yl)-1-(4-phenyl-1H-imidazol-2-yl)ethylamine]
The melting point of the first is lower: 110 to 114 °C for the first, 210 to 212 °C for the second.
